Assay results taken from patent US20150065717A1, “NIPECOTIC ACID DERIVATIVE AND USE THEREOF FOR MEDICAL PURPOSES” (Toray Industries, Inc., priority 2012, published 2015).

Key:
[1] = system: rat anti-GBM antiserum-administered nephritis model; assay: Pharmacological effect in rat anti-GBM antiserum-administered nephritis model; assay type: in vivo, rat (Wistar-Kyoto strain)
Procedure: Example Compound 1 or 2 was administered to a rat anti-GBM antiserum-administered nephritis model (Proceedings of the National Academy of Sciences of the United States of America, 2005, vol. 102, p. 7736-7741; European journal of pharmacology, 2002, vol. 449, p. 167-176), and the therapeutic effect of the nipecotic acid derivative (I) or a pharmaceutically acceptable salt thereof on chronic renal disease with glomerulonephritis and renal failure was evaluated. Rats (Wistar-Kyoto strain, male, 8 weeks old; Charles River Laboratories Japan, Inc.) with nephritis induced by administration of a rabbit anti-rat GBM antiserum prepared by methods described in documents (Proceedings of the National Academy of Sciences of the United States of America, 2005, vol. 102, p. 7736-7741; European journal of pharmacology, 2002, vol. 449, p. 167-176) into the tail vein were provided as “group with induced nephritis”. On the other hand, rats to which the anti-GBM antiserum was not administered were provided as “normal group”. Two weeks after administration of anti-GBM antiserum, blood was collected from the tail vein or jugular vein of each rat, and the sCre level was measured. The measurement of the sCre level was carried out by the enzymatic method. Two weeks after administration of anti-GBM antiserum, part of the rats were euthanized under anesthesia, and their kidneys were removed and immersed in formalin for storage. The formalin-fixed kidneys were embedded in paraffin, and sections were prepared. Pathological specimens (HE- and PAS-stained) were prepared therefrom, and histopathological examination was carried out. To rats showing pathological conditions of glomerulonephritis and renal failure in the group with induced nephritis, a suspension of Example Compound 1 in 0.5% aqueous methyl cellulose solution […] of anti-GBM antiserum until the end of the experiment. This group was provided as “Example Compound 1 (3 mg/kg)-administered group”. In addition, for comparative control, 0.5% aqueous methyl cellulose solution supplemented with 0.5% Tween 80 was similarly administered to rats in the group with induced nephritis, to provide “nephritis control group”. Similarly, 0.5% aqueous methyl cellulose solution supplemented with 0.5% Tween 80 was administered to the normal group. […] The serum Cys-C level was also measured at Week 5 after the administration of anti-GBM antiserum. The measurement of the serum Cys-C level was carried out using the antigen-antibody reaction. Five weeks after the administration of anti-GBM antiserum, the rats were euthanized under anesthesia. Kidneys were removed therefrom and immersed in formalin for storage. The formalin-fixed kidneys were embedded in paraffin, and sections were prepared. Histopathological specimens (HE- and PAS-stained) were prepared therefrom, and histopathological examination was carried out. […] The abscissa in the figure represents the number of weeks after the administration of anti-GBM antiserum, and the ordinate represents the sCre level (mean±standard error, n=6). The symbol “*” in the figure represents statistically significant difference from the nephritis control group (t-test, p<0.05). The results of histopathological examination of kidneys at Week 5 after the administration of anti-GBM antiserum are shown in FIG. 2, wherein the damaged areas in 30 to 40 glomeruli per individual were scored on a 4-point scale based on the ratio (%) of the lesion area (lesion area score: 1+, less than 25%; 2+, not less than 25% and less than 50%; 3+, not less than 50% and less than 75%; 4+, not less than 75%). Each individual corresponds to each bar, wherein the distribution of lesion area scores is shown. The ordinate in the figure represents the ratio of the lesion area score in each individual. Rats (Wistar-Kyoto strain, male, 10 weeks old; Charles River Laboratories Japan, Inc.) with glomerulonephritis induced by administration of an anti-GBM antiserum into the tail vein were provided as “group with induced nephritis”. […]

[2] = system: rat monocrotaline-administered pulmonary hypertension model; assay: Rat monocrotaline-administered pulmonary hypertension model, administration from advanced stage; assay type: in vivo, rat (Wistar strain); conditions: 10 mg/kg orally once per day for 18 or 19 days from Day 10 after monocrotaline; t-test p<0.05; FIG. 7
Procedure: Rats (Wistar strain, male, 5 weeks old; JAPAN SLC, Inc.) with pulmonary hypertension induced by subcutaneous administration of an aqueous monocrotaline (Sigma Corporation) solution (60 mg/kg) to the back were provided as “group with induced pulmonary hypertension”. On the other hand, rats to which water for injection was similarly administered were provided as “normal group”.
To rats in the group with induced pulmonary hypertension, Example Compound 1 (3 or 10 mg/kg) or a positive control compound tadalafil (10 mg/kg) was orally administered once per day. Administration of Example Compound 1 (3 or 10 mg/kg) was carried out for 18 or 19 days from Day 10 after the administration of monocrotaline. Administration of tadalafil (10 mg/kg) was carried out for 28 or 29 days from the day of administration of monocrotaline. […]
On the last day of administration of the test compound, blood was collected from the abdominal vena cava of each rat under anesthesia, and the rat was then euthanized, followed by removal of the heart for measurement of the wet weights of the right ventricle, left ventricle and septum to determine the right ventricular weight ratio (right ventricular weight/(septum weight+left ventricular weight)). The 14,15-DHET concentration in the collected blood was measured by the ELISA method. […]

[3] = 3 mg/kg, 5 weeks after anti-GBM antiserum, 5 animals

SMILES | sCre level vs nephritis control group ([1]; 3 mg/kg orally once per day from Week 2, Week 3 after anti-GBM antiserum, t-test p<0.05, FIG. 1) | serum Cys-C level ([1]; 3 mg/kg orally once per day from Week 2, Week 5 after anti-GBM antiserum, mean±standard error, n=6) | histopathological examination of kidneys, injurious changes vs nephritis control group ([1]; 3 mg/kg, 5 weeks after anti-GBM antiserum) | Basophilic tubules, Mild [1, 3] | Basophilic tubules, Moderate [1, 3] | Dilatation of renal tubules, Mild [1, 3] | Dilatation of renal tubules, Moderate [1, 3] | Glomerular sclerosis, Mild [1, 3] | Glomerular sclerosis, Moderate [1, 3] | Glomerular sclerosis, Severe [1, 3] | Mild infiltration of mononuclear cells into the stroma [1, 3] | Protein casts in outer medulla, Mild [1, 3] | Protein casts in outer medulla, Moderate [1, 3] | Protein casts in outer medulla, Severe [1, 3] | scoring of the damaged area in glomeruli (lesion area score) ([1]; 3 mg/kg, Week 5 after anti-GBM antiserum, FIG. 2) | right ventricular weight ratio vs pulmonary hypertension control group [2] | sCre level vs nephritis control group ([1]; 10 mg/kg orally once per day from Week 2, Week 5 after anti-GBM antiserum, FIG. 3)
CCC(=O)NC1(C(=O)N2CCC[C@@H](C(=O)NCc3ccc(C#N)cc3OC(F)(F)F)C2)CCC1 [Example Compound 1, (R)—N-(4-cyano-2-(trifluoromethoxy)benzyl)-1-(1-propionamidocyclobutanecarbonyl)piperidine-3-carboxamide] | statistically significantly lower | 0.63 ± 0.08 mg/L | lower degrees and frequencies of these injurious changes | 2 number of individuals | 3 number of individuals | 1 number of individuals | 4 number of individuals | 0 number of individuals | 5 number of individuals | 0 number of individuals | 5 number of individuals | 1 number of individuals | 4 number of individuals | 0 number of individuals | suppression of glomerular injury | statistically significantly lower | 
CC(C)(NS(C)(=O)=O)C(=O)N1CCC[C@@H](C(=O)NCc2ccc(C#N)cc2OC(F)(F)F)C1 [Example Compound 2, (R)—N-(4-cyano-2-(trifluoromethoxy)benzyl)-1-(2-methyl-2-(methylsulfonamido)propanoyl)piperidine-3-carboxamide] |  |  |  |  |  |  |  |  |  |  |  |  |  |  |  |  | remarkably lower
